A short description of the data set: Henry's Law constant (molality scale); of the first substance listed, at infinite dilution; mn = molality of the nth substance listed, in mol/kg. To be noted: Liquid, Chromatography, m1 = 0.

21 compounds from the NIST ThermoML archive (doi:10.1021/je3010535) can be followed below.

Values joined by “and” are separate entries in the source; they are usually repeats but may differ in a detail not shown here. Equal values may be shown once. Numbers after ± are expanded uncertainties.

Turning to `Cc1ccccc1` [toluene] + O, the “Henry's Law constant” value runs as follows: (274.15 K) 164 ± 49 kPa·kg/mol; (294.65 K) 459 kPa·kg/mol and 470 kPa·kg/mol; (296.15 K) 489 ± 150 kPa·kg/mol; (310.15 K) 316 ± 95 kPa·kg/mol; (313.15 K) 982 ± 290 kPa·kg/mol; (326.15 K) 1840 ± 550 kPa·kg/mol. The “Henry's Law constant” value (331.15 K) amounted to 3030 ± 910 kPa·kg/mol.

On to `BrCCBr` [1,2-dibromoethane] + O, for which the “Henry's Law constant” value by setting is: (274.15 K) 12.7 ± 3.8 kPa·kg/mol; (294.65 K) 54.1 kPa·kg/mol and 41.2 kPa·kg/mol; (296.15 K) 57.8 ± 17 kPa·kg/mol; (310.15 K) 130 ± 39 kPa·kg/mol; (320.15 K) 218 ± 66 kPa·kg/mol; (331.15 K) 333 ± 100 kPa·kg/mol.

With `Cl/C=C/CCl` [(E)-1,3-dichloro-1-propene] + O, the “Henry's Law constant” value by setting is: (274.15 K) 52.9 ± 16 kPa·kg/mol; (294.65 K) 144 kPa·kg/mol; (296.15 K) 153 ± 46 kPa·kg/mol; (310.15 K) 300 ± 90 kPa·kg/mol; (331.15 K) 929 ± 280 kPa·kg/mol.

Turning to `Cc1ccccc1C` [1,2-dimethylbenzene] + O, the “Henry's Law constant” value runs as follows: (274.15 K) 96.1 ± 29 kPa·kg/mol; (294.65 K) 281 kPa·kg/mol and 291 kPa·kg/mol; (296.15 K) 318 ± 95 kPa·kg/mol; (310.15 K) 321 ± 96 kPa·kg/mol; (313.15 K) 781 ± 230 kPa·kg/mol; (326.15 K) 1400 ± 420 kPa·kg/mol. Also, for the setting “331.15 K”, the “Henry's Law constant” value turned out to be 1360 ± 410 kPa·kg/mol.

For `CC(C)(C)c1ccccc1` [(1,1-dimethylethyl)benzene] + O, the “Henry's Law constant” value is 189 ± 75 kPa·kg/mol (274.15 K); 448 kPa·kg/mol and 554 kPa·kg/mol (294.65 K); 562 ± 220 kPa·kg/mol (296.15 K); 1020 ± 410 kPa·kg/mol (310.15 K); 2070 ± 830 kPa·kg/mol (313.15 K); 3330 ± 1300 kPa·kg/mol (326.15 K). Moreover, the “Henry's Law constant” value (331.15 K) amounted to 2160 ± 860 kPa·kg/mol.

With `C=Cc1ccccc1` [styrene] + O, the “Henry's Law constant” value by setting is: (274.15 K) 62.4 ± 19 kPa·kg/mol; (294.65 K) 196 kPa·kg/mol; (296.15 K) 224 ± 67 kPa·kg/mol; (310.15 K) 382 ± 110 kPa·kg/mol; (313.15 K) 507 ± 150 kPa·kg/mol; (326.15 K) 925 ± 280 kPa·kg/mol. Under “331.15 K”, the “Henry's Law constant” value was found to be 972 ± 290 kPa·kg/mol.

On to `ClC(Cl)=C(Cl)Cl` [tetrachloroethene] + O, for which the “Henry's Law constant” value was 320 ± 130 kPa·kg/mol (274.15 K); 755 kPa·kg/mol and 879 kPa·kg/mol (294.65 K); 813 ± 330 kPa·kg/mol (296.15 K); 2470 ± 990 kPa·kg/mol (310.15 K); 2240 ± 900 kPa·kg/mol (313.15 K); 2750 ± 1100 kPa·kg/mol (326.15 K). The “Henry's Law constant” value (331.15 K) stood at 5600 ± 2200 kPa·kg/mol.

With `CCCCC(C)=O` [2-hexanone] + O, the “Henry's Law constant” value was 0.551 ± 0.17 kPa·kg/mol (274.15 K); 4.89 kPa·kg/mol and 5.91 kPa·kg/mol (294.65 K); 7.07 ± 2.1 kPa·kg/mol (296.15 K); 17.9 ± 5.4 kPa·kg/mol (310.15 K); 48.2 ± 14 kPa·kg/mol (320.15 K); 122 ± 36 kPa·kg/mol (331.15 K). Where the note is “333.15 K”, the “Henry's Law constant” value worked out at 136 ± 41 kPa·kg/mol.

As for `Cc1ccc(C)cc1` [1,4-dimethylbenzene] + O, the “Henry's Law constant” value runs as follows: (274.15 K) 147 ± 59 kPa·kg/mol; (294.65 K) 381 kPa·kg/mol and 439 kPa·kg/mol; (296.15 K) 457 ± 180 kPa·kg/mol; (313.15 K) 1170 ± 470 kPa·kg/mol; (326.15 K) 2090 ± 840 kPa·kg/mol; (331.15 K) 1810 ± 730 kPa·kg/mol.

As to `Cc1ccc(C)c(C)c1` [1,2,4-trimethylbenzene] + O, the “Henry's Law constant” value is, setting by setting: (274.15 K) 82.9 ± 33 kPa·kg/mol; (294.65 K) 235 kPa·kg/mol and 255 kPa·kg/mol; (296.15 K) 292 ± 120 kPa·kg/mol; (310.15 K) 497 ± 200 kPa·kg/mol; (313.15 K) 974 ± 390 kPa·kg/mol; (326.15 K) 1770 ± 710 kPa·kg/mol. Besides, for the setting “331.15 K”, the “Henry's Law constant” value turned out to be 1390 ± 550 kPa·kg/mol.

As for `ClC(Br)Br` [chlorodibromomethane] + O, the “Henry's Law constant” value reads like this: (274.15 K) 22.7 ± 6.8 kPa·kg/mol; (294.65 K) 80.5 kPa·kg/mol and 82.2 kPa·kg/mol; (296.15 K) 85.7 ± 26 kPa·kg/mol; (310.15 K) 179 ± 54 kPa·kg/mol; (320.15 K) 327 ± 98 kPa·kg/mol; (331.15 K) 536 ± 160 kPa·kg/mol.

Regarding `CCC(C)c1ccccc1` (stereo not drawn) [(1-methylpropyl)benzene] + O, the “Henry's Law constant” value is 251 kPa·kg/mol (274.15 K); 634 kPa·kg/mol (296.15 K); 1100 kPa·kg/mol (310.15 K); 2690 kPa·kg/mol (313.15 K); 4160 kPa·kg/mol (326.15 K); 2310 kPa·kg/mol (331.15 K).

As for `ClCCCCl` [1,3-dichloropropane] + O, the “Henry's Law constant” value reads like this: (274.15 K) 18.8 ± 5.6 kPa·kg/mol; (294.65 K) 65 kPa·kg/mol and 65.9 kPa·kg/mol; (296.15 K) 70.6 ± 21 kPa·kg/mol; (310.15 K) 156 ± 47 kPa·kg/mol; (320.15 K) 287 ± 86 kPa·kg/mol; (331.15 K) 421 ± 130 kPa·kg/mol.

Take `Clc1ccc(Cl)c(Cl)c1` [1,2,4-trichlorobenzene] + O: the “Henry's Law constant” value (274.15 K) came out at 26.9 ± 11 kPa·kg/mol; the “Henry's Law constant” value (294.65 K) was 75.2 kPa·kg/mol and 81.4 kPa·kg/mol; the “Henry's Law constant” value (296.15 K) came out at 83.2 ± 33 kPa·kg/mol; the “Henry's Law constant” value (310.15 K) came out at 148 ± 59 kPa·kg/mol; the “Henry's Law constant” value (320.15 K) was 260 ± 100 kPa·kg/mol; the “Henry's Law constant” value (326.15 K) is 730 ± 290 kPa·kg/mol. Also, under “331.15 K”, the “Henry's Law constant” value was 425 ± 170 kPa·kg/mol.

Consider `Cl/C=C\CCl` [(Z)-1,3-dichloro-1-propene] + O, for which the “Henry's Law constant” value was 25.3 ± 7.6 kPa·kg/mol (274.15 K); 87.5 kPa·kg/mol and 89.1 kPa·kg/mol (294.65 K); 94.4 ± 28 kPa·kg/mol (296.15 K); 202 ± 61 kPa·kg/mol (310.15 K); 386 ± 120 kPa·kg/mol (320.15 K); 657 ± 200 kPa·kg/mol (331.15 K).

For the compound `Clc1ccccc1` [chlorobenzene] + O, the “Henry's Law constant” value is 83.7 ± 25 kPa·kg/mol (274.15 K); 246 kPa·kg/mol and 238 kPa·kg/mol (294.65 K); 270 ± 81 kPa·kg/mol (296.15 K); 423 ± 130 kPa·kg/mol (310.15 K); 532 ± 160 kPa·kg/mol (313.15 K); 1050 ± 310 kPa·kg/mol (326.15 K). In addition, the “Henry's Law constant” value (331.15 K) is 1180 ± 350 kPa·kg/mol.

Consider `CC1CCCCC1` [methylcyclohexane] + O, for which the “Henry's Law constant” value (274.15 K) was found to be 1060 ± 320 kPa·kg/mol; the “Henry's Law constant” value (294.65 K) was 2350 kPa·kg/mol and 2300 kPa·kg/mol; the “Henry's Law constant” value (296.15 K) is 2010 ± 600 kPa·kg/mol; the “Henry's Law constant” value (313.15 K) worked out at 9440 ± 2800 kPa·kg/mol; the “Henry's Law constant” value (326.15 K) was 15600 ± 4700 kPa·kg/mol.

Turning to `CC(C)c1ccccc1` [isopropylbenzene] + O, the “Henry's Law constant” value was 212 ± 64 kPa·kg/mol (274.15 K); 536 kPa·kg/mol and 588 kPa·kg/mol (294.65 K); 622 ± 190 kPa·kg/mol (296.15 K); 1380 ± 410 kPa·kg/mol (310.15 K); 1960 ± 590 kPa·kg/mol (313.15 K); 3260 ± 980 kPa·kg/mol (326.15 K). Also, the “Henry's Law constant” value (331.15 K) amounted to 3130 ± 940 kPa·kg/mol.

For the compound `ClCC(Cl)(Cl)Cl` [1,1,1,2-tetrachloroethane] + O, the “Henry's Law constant” value was 60.3 ± 18 kPa·kg/mol (274.15 K); 184 kPa·kg/mol and 168 kPa·kg/mol (294.65 K); 199 ± 60 kPa·kg/mol (296.15 K); 388 ± 120 kPa·kg/mol (310.15 K); 832 ± 250 kPa·kg/mol (326.15 K); 1090 ± 330 kPa·kg/mol (331.15 K).

For the compound `Clc1ccc(Cl)cc1` [1,4-dichlorobenzene] + O, the “Henry's Law constant” value was 52.8 ± 21 kPa·kg/mol (274.15 K); 136 kPa·kg/mol and 149 kPa·kg/mol (294.65 K); 160 ± 64 kPa·kg/mol (296.15 K); 263 ± 110 kPa·kg/mol (310.15 K); 476 ± 190 kPa·kg/mol (313.15 K); 451 ± 180 kPa·kg/mol (320.15 K). In addition, the “Henry's Law constant” value is 804 ± 320 kPa·kg/mol (326.15 K) and 686 ± 270 kPa·kg/mol (331.15 K).

With `Clc1cccc(Cl)c1` [1,3-dichlorobenzene] + O, the “Henry's Law constant” value is 50.3 ± 20 kPa·kg/mol (274.15 K); 160 kPa·kg/mol and 164 kPa·kg/mol (294.65 K); 185 ± 74 kPa·kg/mol (296.15 K); 309 ± 120 kPa·kg/mol (310.15 K); 552 ± 220 kPa·kg/mol (313.15 K); 519 ± 210 kPa·kg/mol (320.15 K). Besides, the “Henry's Law constant” value is, setting by setting: (326.15 K) 967 ± 390 kPa·kg/mol; (331.15 K) 768 ± 310 kPa·kg/mol.
